# Experimental data as given in patent US8669251B2, “8-fluorophthalazin-1(2H)-one compounds” (Genentech, Inc., priority 2011, dated 2014).
# Tested on: production of CD69 by B lymphocytes in human whole blood
# Assay: CD69 Whole Blood Assay (CD69 Hu Blood FACS)
# Assay type: cell-based
# Details: human whole blood activated with goat F(ab')2 anti-human IgM, 20 hours; CD69 on CD20 positive cells by FACS; Table 1
# Source text: A CD69 Whole Blood Assay can be conducted on Formula I compounds to determine the ability of compounds to inhibit the production of CD69 by B lymphocytes in human whole blood activated by crosslinking surface IgM with goat F(ab′)2 anti-human IgM (Example 907). CD69 is a type II C-type lectin involved in lymphocyte migration and cytokine secretion. CD69 expression represents one of the earliest available indicators of leukocyte activation and its rapid induction occurs through transcriptional activation (Vazquez et al (2009) Jour. of Immunology Published Oct. 19, 2009, doi:10.4049/jimmunol.0900839). Concentration-dependent inhibition of antigen receptor stimulation by selective Btk inhibitors induces cell surface expression of the lymphocyte activation marker CD69 (Honigberg et al (2010) Proc. Natl. Acad. Sci. 107(29):13075-13080). Thus, CD69 inhibition by selective Btk inhibitors may be correlated with therapeutic efficacy of certain B-cell disorders.
# Human blood is obtained from healthy volunteers, with the following restrictions: 1 week drug-free, non-smokers. Blood (approximately 20 mls to test 8 compounds) is collected by venipuncture into Vacutainer® (Becton, Dickinson and Co.) tubes with sodium heparin.
# Solutions of Formula I and II compounds at 10 mM in DMSO are diluted 1:10 in 100% DMSO, then are diluted by three-fold serial dilutions in 100% DMSO for a ten point dose-response curve. The compounds are further diluted 1:10 in PBS and then an aliquot of 5.5 μl of each compound is added in duplicate to a 2 ml 96-well plate; 5.5 μl of 10% DMSO in PBS is added as control and no-stimulus wells. Human whole blood —HWB (100 μl) is added to each well. After mixing the plates are incubated at 37° C., 5% CO2, 100% humidity for 30 minutes. Goat F(ab′)2 anti-human IgM (10 μl of a 500 μg/ml solution, 50 μg/ml final) is added to each well (except the no-stimulus wells) with mixing and the plates are incubated for an additional 20 hours. At the end of the 20 hour incubation, samples are incubated with fluorescent labeled antibodies for 30 minutes, at 37° C., 5% CO2, 100% humidity. Include induced control, unstained and single stains for compensation adjustments and initial voltage settings. Samples are then lysed with PharM Lyse™ (BD Biosciences Pharmingen) according to the manufacturer's instructions. Samples are then transferred to a 96 well plate suitable to be run on the BD Biosciences HTS 96 well system on the LSRII machine. Data acquired and Mean Fluorescence Intensity values were obtained using BD Biosciences DIVA Software. Results are initially analyzed by FACS analysis software (Flow Jo). […] The inhibitory concentration (IC50, IC70, IC90) values are calculated by Prism version 5, using a nonlinear regression curve fit.
row,Structure (SMILES),CD69 Hu Blood FACS (IC70)
1,"CN1CCN(c2ccc(Nc3cc(-c4cccc(-n5ncc6cc(C(C)(C)C)cc(F)c6c5=O)c4CO)cn(C)c3=O)nc2)CC1 [Compound 101, 6-tert-butyl-8-fluoro-2-(2-(hydroxymethyl)-3-(1-methyl-5-(5-(4-methylpiperazin-1-yl)pyridin-2-yl-amino)-6-oxo-1,6-dihydropyridin-3-yl)phenyl)phthalazin-1(2H)-one]",24 nM
2,"Cn1cc(-c2cc(F)cc(-n3ncc4cc(C(C)(C)C)cc(F)c4c3=O)c2CO)cc(Nc2ccc(N3CCN(C4COC4)CC3)cn2)c1=O [Compound 102, 6-tert-butyl-8-fluoro-2-(5-fluoro-2-(hydroxymethyl)-3-(1-methyl-5-(5-(4-(oxetan-3-yl)piperazin-1-yl)pyridin-2-ylamino)-6-oxo-1,6-dihydropyridin-3-yl)phenyl)phthalazin-1(2H)-one]",12 nM
3,"Cn1cc(-c2ccnc(-n3ncc4cc(C(C)(C)C)cc(F)c4c3=O)c2CO)cc(Nc2ccc(N3CCN(C4COC4)CC3)cn2)c1=O [Compound 103, 6-tert-butyl-8-fluoro-2-(3-(hydroxymethyl)-4-(1-methyl-5-(5-(4-(oxetan-3-yl)piperazin-1-yl)pyridin-2-ylamino)-6-oxo-1,6dihydropyridin-3-yl)pyridin-2-yl)phthalazin-1(2H)-one]",13 nM
4,"C[C@H]1CN(C2COC2)CCN1c1ccc(Nc2cc(-c3cc(F)cc(-n4ncc5cc(C(C)(C)C)cc(F)c5c4=O)c3CO)cn(C)c2=O)nc1 [Compound 104, (S)-6-tert-butyl-8-fluoro-2-(5-fluoro-2-(hydroxymethyl)-3-(1-methyl-5-(5-(2-methyl-4-(oxetan-3-yl)piperazin-1-yl)pyridin-2-ylamino)-6-oxo-1,6-dihydropyridin-3-yl)phenyl)phthalazin-1(2H)-one]",32.9 nM
5,"C[C@H]1CN(C2COC2)CCN1c1ccc(Nc2cc(-c3ccnc(-n4ncc5cc(C(C)(C)C)cc(F)c5c4=O)c3CO)cn(C)c2=O)nc1 [Compound 105, (S)-6-tert-butyl-8-fluoro-2-(3-(hydroxymethyl)-4-(1-methyl-5-(5-(2-methyl-4-(oxetan-3-yl)piperazin-1-yl)pyridin-2-ylamino)-6-oxo-1,6-dihydropyridin-3-yl)pyridin-2-yl)phthalazin-1(2H)-one]",6 nM
6,"C[C@@H]1CN(C2COC2)CCN1c1ccc(Nc2cc(-c3cc(F)cc(-n4ncc5cc(C(C)(C)C)cc(F)c5c4=O)c3CO)cn(C)c2=O)nc1 [Compound 107, (R)-6-tert-butyl-8-fluoro-2-(5-fluoro-2-(hydroxymethyl)-3-(1-methyl-5-(5-(2-methyl-4-(oxetan-3-yl)piperazin-1-yl)pyridin-2-ylamino)-6-oxo-1,6-dihydropyridin-3-yl)phenyl)phthalazin-1(2H)-one]",26.3 nM
7,"C[C@H]1CN(C2COC2)CCN1c1ccc(Nc2cc(-c3cncc(-n4ncc5cc(C(C)(C)C)cc(F)c5c4=O)c3CO)cn(C)c2=O)nc1 [Compound 109, (S)-6-tert-butyl-8-fluoro-2-(4-(hydroxymethyl)-5-(1-methyl-5-(5-(2-methyl-4-(oxetan-3-yl)piperazin-1-yl)pyridin-2-ylamino)-6-oxo-1,6-dihydropyridin-3-yl)pyridin-3-yl)phthalazin-1(2H)-one]",12 nM
8,"C[C@@H]1CN(c2ccc(Nc3cc(-c4ccnc(-n5ncc6cc(C(C)(C)C)cc(F)c6c5=O)c4CO)cn(C)c3=O)nc2)[C@@H](C)CN1C1COC1 [Compound 110, 6-tert-butyl-2-(4-(5-(5-((2S,5R)-2,5-dimethyl-4-(oxetan-3-yl)piperazin-1-yl)pyridin-2-ylamino)-1-methyl-6-oxo-1,6-dihydropyridin-3-yl)-3-(hydroxymethyl)pyridin-2-yl)-8-fluorophthalazin-1(2H)-one]",5.9 nM
9,"CC[C@H]1CN(C2COC2)CCN1c1ccc(Nc2cc(-c3cc(F)cc(-n4ncc5cc(C(C)(C)C)cc(F)c5c4=O)c3CO)cn(C)c2=O)nc1 [Compound 111, (S)-6-tert-butyl-2-(3-(5-(5-(2-ethyl-4-(oxetan-3-yl)piperazin-1-yl)pyridin-2-ylamino)-1-methyl-6-oxo-1,6-dihydropyridin-3-yl)-5-fluoro-2-(hydroxymethyl)phenyl)-8-fluorophthalazin-1(2H)-one]",37.4 nM
10,"CC[C@H]1CN(C2COC2)CCN1c1ccc(Nc2cc(-c3ccnc(-n4ncc5cc(C(C)(C)C)cc(F)c5c4=O)c3CO)cn(C)c2=O)nc1 [Compound 112, (S)-6-tert-butyl-2-(4-(5-(5-(2-ethyl-4-(oxetan-3-yl)piperazin-1-yl)pyridin-2-ylamino)-1-methyl-6-oxo-1,6-dihydropyridin-3-yl)-3-(hydroxymethyl)pyridin-2-yl)-8-fluorophthalazin-1(2H)-one]",32.9 nM

# Same assay, conditions: human whole blood activated with goat F(ab')2 anti-human IgM, 20 hours; CD69 on CD20 positive cells by FACS; Table 2
row,Structure (SMILES),CD69 Hu Blood FACS (IC70)
1,"Cn1cc(-c2ccnc(-n3ncc4cc(C(C)(C)C)cc(F)c4c3=O)c2CO)cc(Nc2ccncn2)c1=O [Compound 113, 6-tert-butyl-8-fluoro-2-[3-(hydroxymethyl)-4-[1-methyl-6-oxo-5-(pyrimidin-4-ylamino)-3-pyridyl]-2-pyridyl]phthalazin-1-one]",82.3 nM
2,"Cc1nccc(Nc2cc(-c3ccnc(-n4ncc5cc(C(C)(C)C)cc(F)c5c4=O)c3CO)cn(C)c2=O)n1 [Compound 114, 6-tert-butyl-8-fluoro-2-[3-(hydroxymethyl)-4-[1-methyl-5-[(2-methylpyrimidin-4-yl)amino]-6-oxo-3-pyridyl]-2-pyridyl]phthalazin-1-one]",11.4 nM
3,"CN1CCc2nc(Nc3cc(-c4ccnc(-n5ncc6cc(C(C)(C)C)cc(F)c6c5=O)c4CO)cn(C)c3=O)sc2C1 [Compound 115, 6-tert-butyl-8-fluoro-2-[3-(hydroxymethyl)-4-[1-methyl-5-[(5-methyl-6,7-dihydro-4H-thiazolo[5,4-c]pyridin-2-yl)amino]-6-oxo-3-pyridyl]-2-pyridyl]phthalazin-1-one]",73.2 nM
4,"Cn1nc(-c2ccnc(-n3ncc4cc(C(C)(C)C)cc(F)c4c3=O)c2CO)cc(Nc2ccc(C(=O)N3CCOCC3)cn2)c1=O [Compound 116, 6-tert-butyl-8-fluoro-2-[3-(hydroxymethyl)-4-[1-methyl-5-[[5-(morpholine-4-carbonyl)-2-pyridyl]amino]-6-oxo-pyridazin-3-yl]-2-pyridyl]phthalazin-1-one]",93.5 nM
5,"C[C@H]1CN(C2COC2)CCN1c1ccc(Nc2cc(-c3ccnc(-n4ncc5cc(C(C)(C)C)cc(F)c5c4=O)c3CO)nn(C)c2=O)nc1 [Compound 117, 6-tert-butyl-8-fluoro-2-[3-(hydroxymethyl)-4-[1-methyl-5-[[5-[(2S)-2-methyl-4-(oxetan-3-yl)piperazin-1-yl]-2-pyridyl]amino]-6-oxo-pyridazin-3-yl]-2-pyridyl]phthalazin-1-one]",16.5 nM
6,"CCn1nc(Nc2cc(-c3ccnc(-n4ncc5cc(C(C)(C)C)cc(F)c5c4=O)c3CO)cn(C)c2=O)cc1C [Compound 118, 6-tert-butyl-2-[4-[5-[(1-ethyl-5-methyl-pyrazol-3-yl)amino]-1-methyl-6-oxo-3-pyridyl]-3-(hydroxymethyl)-2-pyridyl]-8-fluoro-phthalazin-1-one]",112 nM
7,"Cc1cc(Nc2cc(-c3ccnc(-n4ncc5cc(C(C)(C)C)cc(F)c5c4=O)c3CO)cn(C)c2=O)nn1C [Compound 119, 6-tert-butyl-2-[4-[5-[(1,5-dimethylpyrazol-3-yl)amino]-1-methyl-6-oxo-3-pyridyl]-3-(hydroxymethyl)-2-pyridyl]-8-fluoro-phthalazin-1-one]",24.7 nM
